Where two headings read alike, the source gives them in different places.
Target: T1, Androgen Receptor (Homo sapiens, UniProt P10275)
T1 construct: endogenous in cells; host or cells: VCaP cells
T1 sequence (P10275 1-920): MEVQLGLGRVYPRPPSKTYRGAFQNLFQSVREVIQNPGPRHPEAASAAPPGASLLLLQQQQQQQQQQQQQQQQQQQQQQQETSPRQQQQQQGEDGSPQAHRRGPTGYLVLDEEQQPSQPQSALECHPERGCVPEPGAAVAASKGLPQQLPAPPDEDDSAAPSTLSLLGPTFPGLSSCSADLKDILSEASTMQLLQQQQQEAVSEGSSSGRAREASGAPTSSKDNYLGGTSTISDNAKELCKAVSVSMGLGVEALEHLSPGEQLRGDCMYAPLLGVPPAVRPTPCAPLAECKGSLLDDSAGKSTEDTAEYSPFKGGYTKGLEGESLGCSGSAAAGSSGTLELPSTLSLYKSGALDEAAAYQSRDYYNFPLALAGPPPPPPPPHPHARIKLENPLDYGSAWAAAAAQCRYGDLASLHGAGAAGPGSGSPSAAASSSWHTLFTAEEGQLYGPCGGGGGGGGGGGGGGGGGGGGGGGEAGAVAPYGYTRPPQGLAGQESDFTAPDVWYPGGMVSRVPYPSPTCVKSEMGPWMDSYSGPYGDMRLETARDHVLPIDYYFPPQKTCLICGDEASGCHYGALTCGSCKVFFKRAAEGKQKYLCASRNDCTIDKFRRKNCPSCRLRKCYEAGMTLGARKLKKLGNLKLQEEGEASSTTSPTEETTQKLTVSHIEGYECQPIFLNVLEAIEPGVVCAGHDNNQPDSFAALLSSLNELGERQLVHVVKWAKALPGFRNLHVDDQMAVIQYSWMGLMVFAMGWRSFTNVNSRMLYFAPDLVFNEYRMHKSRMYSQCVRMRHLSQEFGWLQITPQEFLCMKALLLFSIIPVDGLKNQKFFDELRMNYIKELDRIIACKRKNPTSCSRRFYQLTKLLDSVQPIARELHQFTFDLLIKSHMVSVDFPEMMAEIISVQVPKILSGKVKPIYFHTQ
Experiment: Androgen Receptor ELISA assay (PathScan AR ELISA) in VCaP cells: AR degradation, Dmax and DC50
Assay type: cell-based
Details: for DC50: read-out: VCaP DC50; for Dmax: VCaP
Summary of the method: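 After 24 h exposure of VCaP cells (charcoal-stripped serum, 0.1 nM R1881 agonist, 0.1% DMSO) to seven half-log compound concentrations, residual AR in lysates was measured by PathScan ELISA (TMB absorbance, 450 nm). Cells were plated at 30,000/well and grown at least 3 days beforehand.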

[1] = VCaP cells, Table 36, read-out: VCaP Dmax (%)
[2] = read-out: VCaP Dmax (%), VCaP cells, Table 36

| SMILES | DC50 (VCaP cells, Table 36) [nM] | Dmax [1] [%] | Dmax [2] [%] | Dmax (read-out: VCaP Dmax (%)) [%] |
| --- | --- | --- | --- | --- |
| Cc1ncsc1-c1ccc([C@H](C)NC(=O)[C@@H]2C[C@@H](O)CN2C(=O)[C@@H](NC(=O)CN2CCN(CCCN3CCN(c4ccc(C(=O)N[C@H]5C(C)(C)[C@H](Oc6ccc(C#N)c(Cl)c6)C5(C)C)cn4)CC3)CC2)C(C)(C)C)cc1 [Example 717, N-((1r,3r)-3-(3-chloro-4-cyanophenoxy)-2,2,4,4-tetramethylcyclobutyl)-6-(4-(3-(4-(2-(((S)-1-((2S,4R)-4-hydroxy-2-(((S)-1-(4-(4-methylthiazol-5-yl)phenyl)ethyl)carbam-oyl)pyrrolidin-1-yl)-3,3-dimethyl-1-oxobutan-2-yl)amino)-2-oxoethyl)piperazin-1-yl)propyl)piperazin-1-yl)nicotinamide] | < 50 |  |  | 51 to 70 |
| CO[C@@H]1C[C@@H](C(=O)N(C)Cc2ccc(-c3scnc3C)cc2)N(C(=O)[C@@H](N(C)C(=O)COCCCCCN(C)c2ccc(C(=O)N[C@H]3C(C)(C)[C@H](Oc4ccc(C#N)c(C(F)(F)F)c4)C3(C)C)nc2)C(C)(C)C)C1 [Example 718, N-((1r,3r)-3-(4-cyano-3-(trifluoromethyl)phenoxy)-2,2,4,4-tetramethylcyclobutyl)-5-((5-(2-(((S)-1-((2S,4R)-4-methoxy-2-(methyl(4-(4-methylthiazol-5-yl)benzyl)carbamoyl)pyrrolidin-1-yl)-3,3-dimethyl-1-oxobutan-2-yl)(methyl)amino)-2-oxoethoxy)pentyl)(meth-yl)amino)picolinamide] | > 501 | < 25 |  |  |
| Cc1ncsc1-c1ccc([C@H](C)NC(=O)[C@@H]2C[C@@H](O)CN2C(=O)[C@@H](NC(=O)COCCc2cn(-c3ccc(C(=O)N[C@H]4C(C)(C)[C@H](Oc5ccc(C#N)c(C(F)(F)F)c5)C4(C)C)cc3)nn2)C(C)(C)C)cc1 [Example 719, (2S,4R)-1-((S)-2-(2-(2-(1-(4-(((1r,3r)-3-(4-cyano-3-(trifluoromethyl)phenoxy)-2,2,4,4-tetramethylcyclobutyl)carbamoyl)phenyl)-1H-1,2,3-triazol-4-yl)ethoxy)acetamido)-3,3-dimethylbutanoyl)-4-hydroxy-N-((S)-1-(4-(4-methylthiazol-5-yl)phenyl)ethyl)pyrrolidine-2-carboxamide] | < 50 |  | > 71 |  |
| Cc1ncsc1-c1ccc([C@H](C)NC(=O)[C@@H]2C[C@@H](F)CN2C(=O)[C@@H](NC(=O)COCCN2CCN(c3ccc(C(=O)N[C@H]4C(C)(C)[C@H](Oc5ccc(C#N)c(Cl)c5)C4(C)C)cn3)CC2)C(C)(C)C)cc1 [Example 720, N-((1r,3r)-3-(3-chloro-4-cyanophenoxy)-2,2,4,4-tetramethylcyclobutyl)-6-(4-(2-(2-(((S)-1-((2S,4R)-4-fluoro-2-(((S)-1-(4-(4-methylthiazol-5-yl)phenyl)ethyl)carbam-oyl)pyrrolidin-1-yl)-3,3-dimethyl-1-oxobutan-2-yl)amino)-2-oxoethoxy)ethyl)pipera-zin-1-yl)nicotinamide] | > 501 |  | < 25 |  |
| Cc1ncsc1-c1ccc([C@H](C)NC(=O)C2C[C@@H](O)CN2C(=O)C(NC(=O)CN2CCN(CCCCc3ccc(C(=O)N[C@H]4C(C)(C)[C@H](Oc5ccc(C#N)c(C(F)(F)F)c5)C4(C)C)cc3)CC2)C(C)(C)C)cc1 (stereo partly drawn) [Example 723, (2S,4R)-1-((S)-2-(2-(4-(4-(4-(((1r,3r)-3-(4-cyano-3-(trifluoromethyl)phenoxy)-2,2,4,4-tetramethylcyclobutyl)carbamoyl)phenyl)butyl)piperazin-1-yl)actamido)-3,3-dimethylbutanoyl)-4-hydroxy-N-((S)-1-(4-(4-methylthiazol-5-yl)phenyl)ethyl)pyrrolidine-2-carboxamide] | < 50 | > 71 |  |  |
| Cc1ncsc1-c1ccc([C@H](C)NC(=O)[C@@H]2CCCN2C(=O)[C@@H](NC(=O)CN2CCN(CCCc3ccc(C(=O)N[C@H]4C(C)(C)[C@H](Oc5ccc(C#N)c(C(F)(F)F)c5)C4(C)C)cc3)CC2)C(C)(C)C)cc1 [Example 724, (S)-1-((S)-2-(2-(4-(3-(4-(((1r,3r)-3-(4-cyano-3-(trifluoromethyl)phenoxy)-2,2,4,4-tetramethylcyclobutyl)carbamoyl)phenyl)propyl)piperazin-1-yl)acetamido)-3,3-dimethylbutanoyl)-N-((S)-1-(4-(4-methylthiazol-5-yl)phenyl)ethyl)pyrrolidine-2-carboxamide] | > 501 | < 25 |  |  |
| Cc1ncsc1-c1ccc([C@H](C)NC(=O)[C@@H]2CC(F)(F)CN2C(=O)[C@@H](NC(=O)COCCN2CCN(c3ccc(C(=O)N[C@H]4C(C)(C)[C@H](Oc5ccc(C#N)c(Cl)c5)C4(C)C)cn3)CC2)C(C)(C)C)cc1 [Example 725, N-((1r,3r)-3-(3-chloro-4-cyanophenoxy)-2,2,4,4-tetramethylcyclobutyl)-6-(4-(2-(2-(((S)-1-((S)-4,4-difluoro-2-(((S)-1-(4-(4-methylthiazol-5-yl)phenyl)ethyl)carbam-oyl)pyrrolidin-1-yl)-3,3-dimethyl-1-oxobutan-2-yl)amino)-2-oxoethoxy)ethyl)pipera-zin-1-yl)nicotinamide] | > 501 | < 25 |  |  |
| Cc1ncsc1-c1ccc([C@H](C)NC(=O)[C@@H]2C[C@@H](O)CN2C(=O)[C@@H](NC(=O)OC(C)(C)C)[C@@H](C)OCCCN(C)CCc2ccc(C(=O)N[C@H]3C(C)(C)[C@H](Oc4ccc(C#N)c(Cl)c4)C3(C)C)cc2)cc1 [Example 729, tert-butyl ((2S,3R)-3-(3-((4-(((1r,3r)-3-(3-chloro-4-cyanophenoxy)-2,2,4,4-tetramethylcyclobutyl)carbamoyl)phenethyl)(meth-yl)amino)propoxy)-1-((2S,4R)-4-hydroxy-2-(((S)-1-(4-(4-methylthiazol-5-yl)phenyl)ethyl)carbam-oyl)pyrrolidin-1-yl)-1-oxobutan-2-yl)carbamate] | > 501 | < 25 |  |  |

Now from value to compound, other results behind:

| DC50 (VCaP cells, Table 36) [nM] | Dmax [1] [%] | Dmax [2] [%] | SMILES | Dmax (read-out: VCaP Dmax (%)) [%] |
| --- | --- | --- | --- | --- |
| > 501 |  | < 25 | Cc1ncsc1-c1ccc([C@H](C)NC(=O)[C@@H]2C[C@H](F)CN2C(=O)[C@@H](NC(=O)COCCN2CCN(c3ccc(C(=O)N[C@H]4C(C)(C)[C@H](Oc5ccc(C#N)c(Cl)c5)C4(C)C)cn3)CC2)C(C)(C)C)cc1 [Example 721, N-((1r,3r)-3-(3-chloro-4-cyanophenoxy)-2,2,4,4-tetramethylcyclobutyl)-6-(4-(2-(2-(((S)-1-((2S,4S)-4-fluoro-2-(((S)-1-(4-(4-methylthiazol-5-yl)phenyl)ethyl)carbam-oyl)pyrrolidin-1-yl)-3,3-dimethyl-1-oxobutan-2-yl)amino)-2-oxoethoxy)ethyl)pipera-zin-1-yl)nicotinamide] |  |
| > 501 |  | < 25 | CC(C)C[C@H](OCCN1CCN(c2ccc(C(=O)N[C@H]3C(C)(C)[C@H](Oc4ccc(C#N)c(Cl)c4)C3(C)C)cn2)CC1)C(=O)N[C@@H](C)C(=O)N1C[C@H](O)C[C@H]1C(=O)NCc1ccc(Cl)cc1 [Example 722, N-((1r,3r)-3-(3-chloro-4-cyanophenoxy)-2,2,4,4-tetramethylcyclobutyl)-6-(4-(2-(((S)-1-(((S)-1-((2S,4R)-2-((4-chlorobenzyl)carbamoyl)-4-hydroxypyrrolidin-1-yl)-1-oxopropan-2-yl)amino)-4-methyl-1-oxopentan-2-yl)oxy)ethyl)piperazin-1-yl)nicotinamide] |  |
| > 501 | < 25 |  | CC(C)C[C@H](OCCN1CCN(c2ccc(C(=O)N[C@H]3C(C)(C)[C@H](Oc4ccc(C#N)c(Cl)c4)C3(C)C)cn2)CC1)C(=O)N[C@H](C(=O)N1C[C@H](O)C[C@H]1C(=O)NCc1ccc(Cl)cc1)C(C)C [Example 726, N-((1r,3r)-3-(3-chloro-4-cyanophenoxy)-2,2,4,4-tetramethylcyclobutyl)-6-(4-(2-(((S)-1-(((S)-1-((2S,4R)-2-((4-chlorobenzyl)carbamoyl)-4-hydroxypyrrolidin-1-yl)-3-methyl-1-oxobutan-2-yl)amino)-4-methyl-1-oxopentan-2-yl)oxy)ethyl)piperazin-1-yl)nicotinamide] |  |
| > 501 | < 25 |  | CC(C)C[C@H](OCCN1CCN(c2ccc(C(=O)N[C@H]3C(C)(C)[C@H](Oc4ccc(C#N)c(Cl)c4)C3(C)C)cn2)CC1)C(=O)N[C@H](C(=O)N1C[C@H](O)C[C@H]1C(=O)NCc1ccc(Cl)cc1)C(C)(C)C [Example 727, N-((1r,3r)-3-(3-chloro-4-cyanophenoxy)-2,2,4,4-tetramethylcyclobutyl)-6-(4-(2-(((S)-1-(((S)-1-((2S,4R)-2-((4-chlorobenzyl)carbamoyl)-4-hydroxypyrrolidin-1-yl)-3,3-dimethyl-1-oxobutan-2-yl)amino)-4-methyl-1-oxopentan-2-yl)oxy)ethyl)piperazin-1-yl)nicotinamide] |  |
